Data reported in patent US11214570B2, “Pyrrolopyridine derivative, method for producing same, and use thereof” (ST PHARM CO., LTD., priority 2017, dated 2022).
pEC50, pIC50: −log10 of the molar value. Where two headings read alike, the source gives them in different places.

Experiments:
HIV-1 Clone 4736_4 = assay: Inhibition of HIV-1 clone 4736_4 (Raltegravir resistance mutant); assay type: cell-based; conditions: Human immunodeficiency virus 1
Experimental: (§1) In order to look into the HIV-1 (Wild/Mutant type) inhibition effects of the compound of the invention, a test for HIV-1 (Wild/Mutant type) inhibition effect was carried out in vitro as follows according to a known method (H. Tanaka et al., J. Med. Chem., 1991, 34, 349). MT-4 cells were used as host cells, and the degree of the compound of the present invention inhibiting cytotoxicity for the virus-infected MT-4 cells was investigated.
(§2) First, MT-4 cells were dispersed in a culture medium at a concentration of 1×10^4cells/well, and HIV-1 was inoculated so that the concentration was 500 TCI50 (concentration at which 50% of the cells are infected)/well. Immediately after the inoculation, the cell dispersion was transferred in 100 μL each to a flat microtiter plate in which a sample of the compound of the invention was placed. The sample was incubated for approximately for 4 to 5 days at […], and the virus inhibition effect was determined with an MTT method. […] As a comparative compound, azidothymidine (AZT), Raltegravir, Dolutegravir, and Elvitegravir were used.

HIV-1 Clone 8070_2 = assay: Inhibition of HIV-1 clone 8070_2 (Raltegravir resistance mutant); assay type: cell-based; conditions: Human immunodeficiency virus 1
Experimental: as §1, §2

HIV-1 Clone 1556_1 = assay: Inhibition of HIV-1 clone 1556_1 (Raltegravir resistance mutant); assay type: cell-based; conditions: Human immunodeficiency virus 1
Experimental: as §1, §2

HIV-1 Clone 4736_2 = assay: microbe, parasite or virus in culture; assay type: cell-based; conditions: Human immunodeficiency virus 1
Experimental: as §1, §2

Wild Type HIV-1(IIIB) = assay: Inhibition of wild type HIV-1(IIIB) in MT-4 cells (MTT method); assay type: cell-based
Experimental: as §1, §2

HIV-1 NL4-3 wt = assay: Inhibition of HIV-1 NL4-3 wt; assay type: cell-based; conditions: Human immunodeficiency virus 1, NL43
Experimental: as §1, §2

HIV-1 Clone 8070_1 = assay: Inhibition of HIV-1 clone 8070_1 (Raltegravir resistance mutant); assay type: cell-based; conditions: Human immunodeficiency virus 1
Experimental: as §1, §2

[1] = Pharmacokinetics test in male rats; assay type: in vivo, rat
Experimental: Experiments were carried out to detect changes in in vivo kinetics including in vivo absorption, distribution, metabolism and excretion for the compound of Example 1 of the present invention. A tube was inserted into the jugular vein and femoral vein of a rat. A drug was administered into the femoral vein in the case of intravenous administration, and a drug was administered into the oral cavity in the case of oral administration. Blood was collected from the jugular vein at a predetermined time. Dose concentration was 1 mg/kg for intravenous administration, and it was 2 mg/kg for oral administration. After centrifuging blood to separate plasma, the plasma and urine samples were pretreated with an appropriate organic solvent, and then concentration of the drug was analyzed with LC-MS/MS. From the data of the drug concentration in blood relative to time which were analyzed after oral and intravenous administrations, the noncompartmental pharmacokinetic parameter was calculated with WinNonlin (Pharsight, USA).

[2] = Liver microsomal stability, human; assay type: in vitro ADME; conditions: human liver microsome, NADPH
Experimental: (§3) The in vitro metabolic stability test was conducted for the compound of Example 1 of the present invention. In order to confirm in vitro metabolic stability, liver microsomal half-life of the compound was observed. A drug compound was reacted with NADPH using a species-specific (rat, dog, monkey, and human) liver microsome containing various metabolizing enzymes, and then half-life of the drug was determined by quantifying with LC-MS/MS in minutes.

[3] = Liver microsomal stability, dog; assay type: in vitro ADME; conditions: dog liver microsome, NADPH, read-out: Dog liver (T1/2, Min)
Experimental: as §3

hERG K+ channel = target: T1, hERG K+ channel (Homo sapiens, UniProt Q12809); assay: hERG K+ channel assay (Patch Clamp Recording Method); assay type: cell-based; conditions: HERG-HEK293, automated planar patch clamp
T1 construct: expressed in transfected cells; host or cells: HERG-HEK293
T1 sequence (Q12809 whole entry): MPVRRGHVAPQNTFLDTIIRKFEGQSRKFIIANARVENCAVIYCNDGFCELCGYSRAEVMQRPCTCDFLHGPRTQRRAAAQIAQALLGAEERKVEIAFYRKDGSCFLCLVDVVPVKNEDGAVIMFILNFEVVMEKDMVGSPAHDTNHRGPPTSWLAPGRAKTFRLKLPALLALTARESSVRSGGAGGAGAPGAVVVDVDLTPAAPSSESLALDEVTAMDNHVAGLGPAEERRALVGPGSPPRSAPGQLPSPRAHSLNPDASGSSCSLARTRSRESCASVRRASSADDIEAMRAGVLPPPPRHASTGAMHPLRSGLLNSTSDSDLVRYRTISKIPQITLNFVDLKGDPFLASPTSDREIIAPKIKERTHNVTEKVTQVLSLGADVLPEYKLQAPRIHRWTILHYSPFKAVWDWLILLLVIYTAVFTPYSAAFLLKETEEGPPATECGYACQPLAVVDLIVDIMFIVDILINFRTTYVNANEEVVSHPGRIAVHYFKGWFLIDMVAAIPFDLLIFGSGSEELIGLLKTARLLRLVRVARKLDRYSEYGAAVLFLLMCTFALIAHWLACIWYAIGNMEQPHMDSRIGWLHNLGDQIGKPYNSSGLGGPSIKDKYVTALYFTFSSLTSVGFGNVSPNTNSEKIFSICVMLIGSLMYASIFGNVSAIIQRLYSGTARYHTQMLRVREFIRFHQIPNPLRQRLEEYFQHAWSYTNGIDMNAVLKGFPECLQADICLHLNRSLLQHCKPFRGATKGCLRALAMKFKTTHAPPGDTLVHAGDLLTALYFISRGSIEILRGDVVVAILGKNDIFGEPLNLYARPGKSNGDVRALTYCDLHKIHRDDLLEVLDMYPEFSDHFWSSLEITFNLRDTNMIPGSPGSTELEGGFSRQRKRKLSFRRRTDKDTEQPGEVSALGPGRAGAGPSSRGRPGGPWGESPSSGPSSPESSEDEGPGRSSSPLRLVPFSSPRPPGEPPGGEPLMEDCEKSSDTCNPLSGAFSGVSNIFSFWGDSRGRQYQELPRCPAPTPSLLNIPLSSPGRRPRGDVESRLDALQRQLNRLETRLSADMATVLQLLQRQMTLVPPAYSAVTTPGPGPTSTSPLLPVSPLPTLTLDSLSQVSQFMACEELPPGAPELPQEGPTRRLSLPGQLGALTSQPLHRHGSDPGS
Experimental: hERG K^+ channel assay was carried out to predict cardiotoxicity for the compound of the invention. The hERG activity of the compound was measured with HERG-HEK293 using automated planar patch clamp [PatchXpress 7000A]. This method is the most well-known method for studying ion channel, in which the flow of ions through the channel is directly measured with a voltage clamp.

[4] = Liver microsomal stability, rat; assay type: in vitro ADME; conditions: rat liver microsome, NADPH
Experimental: as §3

[5] = tested on: CYP1A2, CYP2C9, CYP2D6, CYP3A4 and CYPC19; assay: CYP450 inhibition test (five enzymes, text summary); assay type: in vitro ADME; conditions: human liver microsomes, 10 μM
Experimental: The CYP450 inhibition test was carried out for the compound of the present invention. To human liver microsomes (0.25 mg/ml), 0.1 M phosphate buffer (pH 7.4) and drug cocktails of five drug-metabolizing enzymes (CYP1A2, CYP2C9, CYP2D6, CYP3A4 and CYPC19) (Cocktail A: Phenacetin 50 μM, S-mephenytoin 100 μM, dextromethorphan 5 nM, midazolam 2.5 μM, Cocktail B: tolbutamide 100 μM), the compound of Example 1 was added at concentrations of 0 and 10 μM, respectively, and then cultured at 37° C. for 15 minutes. Subsequently, in order to terminate the reaction, an acetonitrile solution containing an internal standard (chloropropamide) was added thereto, and resulting mixture was centrifuged (14,000 rpm, 4° C.) for 5 minutes. Supernatant was then injected into LC/MS/MS system and the metabolites of the substrate drugs were simultaneously analyzed to thereby evaluate activities of the test compound inhibiting the drug-metabolizing enzymes.

[6] = Liver microsomal stability, monkey; assay type: in vitro ADME; conditions: monkey liver microsome, NADPH, read-out: Monkey liver (T1/2, Min)
Experimental: as §3

[7] = Human immunodeficiency virus 1, IIIB, MT4, read-out: EC50: concentration of 50% inhibition of HIV infection

| Compound | pIC50 (HIV-1 Clone 4736_4) | pIC50 (HIV-1 Clone 8070_2) | pIC50 (HIV-1 Clone 1556_1) | pIC50 (HIV-1 Clone 4736_2) | pEC50 (Wild Type HIV-1(IIIB); [7]) | pIC50 (HIV-1 NL4-3 wt) | pIC50 (HIV-1 Clone 8070_1) | other results |
| --- | --- | --- | --- | --- | --- | --- | --- | --- |
| Cc1nnc(C(=O)NC(C)(C)c2nc(C(=O)NCc3ccc(F)cc3)c(O)c(=O)n2C)o1 [Raltegravir] | 6.45 | 5.42 | 5.43 | 6.45 | 8.23 | 8.34 | 5.36 |  |
| COc1cc2c(cc1Cc1cccc(Cl)c1F)c(=O)c(C(=O)O)cn2[C@H](CO)C(C)C [Elvitegravir] | 6.49 |  | 6.56 | 6.39 |  | > 10.00 | < 5.00 |  |
| C[C@@H]1CCO[C@H]2Cn3cc(C(=O)NCc4ccc(F)cc4F)c(=O)c(O)c3C(=O)N12 [Dolutegravir] | 8.52 | 8.36 | 8.49 | 8.46 |  |  | 8.07 | pIC50 (HIV-1 NL4-3 wt; NL4-3 wt, read-out: IC50): 8.49 |
| Cc1nn(C)c(Cl)c1Cn1c(C)c(C)c2c(-c3ccc(Cl)cc3)c([C@H](OC(C)(C)C)C(=O)O)c(C)nc21 [Example 2, (S)-2-(tert-butoxy)-2-(1-((5-chloro-1,3-dimethyl-1H-pyrazol-4-yl)methyl)-4-(4-chlorophenyl)-2,3,6-trimethyl-1H-pyrrolo[2,3-b]pyridin-5-yl) acetic acid] |  |  |  |  |  |  |  | pEC50 (Wild Type HIV-1(IIIB); Human immunodeficiency virus 1, MT4, Wild Type HIV-1(IIIB) in MT-4 Cells, MTT method, read-out: EC50: concentration of 50% inhibition of HIV infection): 7.59 |
| Cc1nc2c(c(C)c(C)n2Cc2cnn(C)c2)c(-c2ccc(Cl)cc2)c1[C@H](OC(C)(C)C)C(=O)O [Example 1] | 8.47 | 8.47 | 8.47 | 8.96 | 8.49 | 8.44 | 9.05 | F ([1]; PO, 2 mg/kg): 71.8%; AUC(0-inf) ([1]; rat, plasma, IV, 1 mg/kg): 6.51 µM·h; AUC(0-t) ([1]; rat, plasma, IV, 1 mg/kg): 6.08 µM·h; clearance ([1]; rat, plasma, IV, 1 mg/kg): 5.38 mL/min/kg; half-life ([1]; rat, plasma, IV, 1 mg/kg): 8.63 h; Vd ([1]; rat, plasma, IV, 1 mg/kg, read-out: Vss): 1.77 L/kg; AUC(0-inf) ([1]; rat, plasma, PO, 2 mg/kg): 10.4 µM·h; AUC(0-t) ([1]; rat, plasma, PO, 2 mg/kg): 8.73 µM·h; Cmax ([1]; rat, plasma, PO, 2 mg/kg): 914 nM; Tmax ([1]; rat, plasma, PO, 2 mg/kg): 3.2 h; half-life ([1]; rat, plasma, PO, 2 mg/kg): 8.66 h; half-life ([2]; liver microsomes, read-out: Human liver (T1/2, Min)): 136 min; half-life ([3]; liver microsomes): > 145 min; pIC50 (hERG K+ channel): 4.18; half-life ([4]; liver microsomes, read-out: Rat liver (T1/2, Min)): > 145 min; inhibitory activity against five CYP enzymes [5]: does not exhibit an inhibitory activity; half-life ([6]; liver microsomes): 133 min |
| C[C@]12CC[C@H]3[C@@H](CCC4=CC(=O)CC[C@@]43C)[C@@H]1CC[C@@H]2O [Testosterone, reference compound] |  |  |  |  |  |  |  | Human liver (T1/2, Min) [2]: 19.7 min; half-life ([3]; microsomes): 23.6 min; Rat liver (T1/2, Min) [4]: 0.7 min; half-life ([6]; microsomes): 13 min |
